Key:
Type in all cases: functional
Plasmodium berghei [1] = test: Antiplasmodial activity against Plasmodium berghei ANKA infected in C57BL/6 mice (Mus musculus) assessed as parasitemia at 100 ug/g, perorally on days 1,3 and 5
Plasmodium berghei [2] = test: Antiplasmodial activity against Plasmodium berghei ANKA infected in C57BL/6 mice (Mus musculus) assessed as parasitemia at 0.5 ug/g, intraperitoneal on day 2, 1 ug/g, intraperitoneal on day 4 followed by 2 ug/g on day 6
Plasmodium berghei [3] = test: Antiplasmodial activity against Plasmodium berghei ANKA infected in C57BL/6 mice (Mus musculus) assessed as parasitemia at 40 ug/g, intraperitoneally on days 2,4 and 6
Plasmodium berghei [4] = test: Antiplasmodial activity against Plasmodium berghei ANKA infected in C57BL/6 mice (Mus musculus) assessed as parasitemia at 2 ug/g, intraperitoneally on days 2,4 and 6

For `CCC(C)(C)C(=O)O[C@H]1C[C@@H](C)C=C2C=C[C@H](C)[C@H](CC[C@@H]3C[C@@H](O)CC(=O)O3)[C@H]21` [SIMVASTATIN], the Activity (Plasmodium berghei [1]) was 2.98%, the Activity (Plasmodium berghei [2]) was 3.04% and the Activity (Plasmodium berghei [3]) was 2.04%. For the same compound, the Activity (Plasmodium berghei [4]) was 2.38%.

Reference: ChEMBL document CHEMBL1255310, “Simvastatin treatment shows no effect on the incidence of cerebral malaria or parasitemia during experimental malaria” (2008)
